Reference: ChEMBL document CHEMBL1123029, “Synthesis and biological evaluation of phosphonamidate peptide inhibitors of enkephalinase and angiotensin-converting enzyme” (J Med Chem, 1985)

Biological target: T1, Neprilysin (Rattus norvegicus, UniProt P07861)
T1 sequence (P07861 whole entry): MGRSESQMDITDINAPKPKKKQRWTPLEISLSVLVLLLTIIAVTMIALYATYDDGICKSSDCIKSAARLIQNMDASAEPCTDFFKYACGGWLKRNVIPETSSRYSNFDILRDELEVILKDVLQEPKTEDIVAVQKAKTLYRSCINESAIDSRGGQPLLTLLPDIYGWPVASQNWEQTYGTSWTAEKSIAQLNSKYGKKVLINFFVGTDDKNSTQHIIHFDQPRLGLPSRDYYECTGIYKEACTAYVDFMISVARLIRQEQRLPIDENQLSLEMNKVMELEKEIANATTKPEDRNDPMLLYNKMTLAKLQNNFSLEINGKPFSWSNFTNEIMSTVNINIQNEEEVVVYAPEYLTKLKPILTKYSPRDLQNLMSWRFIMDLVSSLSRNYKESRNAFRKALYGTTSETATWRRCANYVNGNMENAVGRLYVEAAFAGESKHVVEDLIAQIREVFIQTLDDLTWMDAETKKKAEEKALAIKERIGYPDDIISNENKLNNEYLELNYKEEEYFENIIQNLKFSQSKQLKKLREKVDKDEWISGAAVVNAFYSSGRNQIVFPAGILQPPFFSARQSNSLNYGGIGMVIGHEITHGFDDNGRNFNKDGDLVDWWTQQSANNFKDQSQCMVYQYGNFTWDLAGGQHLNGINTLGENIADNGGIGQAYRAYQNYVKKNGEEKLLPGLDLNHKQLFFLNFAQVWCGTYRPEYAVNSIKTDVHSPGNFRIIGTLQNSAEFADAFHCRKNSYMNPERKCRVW
Experiment: Binding affinity towards enkephalinase (metalloendopeptidase, E.C.3.4.24.11) of rat kidney

SMILES | Ki [µM]
CCOP(=O)(CNC(C)=O)NC(Cc1ccccc1)NC(CCSC)C(=O)O (configuration not stated) | 160
CC(C)CC(NC(Cc1ccccc1)NP(=O)(O)CNC(=O)c1ccccc1)C(=O)O (configuration not stated) | 10.6
CC(C)CC(NC(Cc1ccccc1)NP(=O)(O)CNC(=O)Cc1ccccc1)C(=O)O (configuration not stated) | 80.2
CC(C)CC(NC(Cc1ccccc1)NP(=O)(O)CNC(=O)CCc1ccccc1)C(=O)O (configuration not stated) | 1210
CSCCC(NC(Cc1ccccc1)NP(=O)(O)CNC(C)=O)C(=O)O (configuration not stated) | 0.14
CC(=O)NCP(=O)(O)NC(Cc1ccccc1)NC(CC(C)C)C(=O)O (configuration not stated) | 0.85
CC(C)C[C@H](NP(=O)(O)O[C@@H]1O[C@@H](C)[C@H](O)[C@@H](O)[C@H]1O)C(=O)N[C@@H](Cc1c[nH]c2ccccc12)C(=O)O [PHOSPHORAMIDON] | 0.004
